Test results reported in patent US20240002379A1, “ASYMMETRIC CONJUGATE COMPOUNDS” (Pheon Therapeutics Ltd., priority 2016, published 2024).

Tests used:
Format in all cases: cell-based
Settings in all cases: MTT assay, 72 hour incubation
[1] = test system: SW620 cell line; experiment: MTT cytotoxicity assay, SW620
Method: (§1) Tumor cell lines were maintained in RPMI1640 medium supplemented with 10% heat-inactivated fetal bovine serum, 2 mM L-glutamine and 1 mM sodium pyruvate. 1800 cells per well were seeded in a volume of 180 μl in a 96-well flat bottom polystyrene plate. The cells were allowed to adhere overnight at 37° C. in a CO2 incubator. Ligands were initially formulated in DMSO, and stocks stored at −80° C. They were then further formulated at lox concentration in RPMI1640 medium. 20 ul of diluted samples were added into each treatment well. On each plate, blank wells with no cells, and untreated wells containing cells, were included. Plates were then cultured at 37° C. in a CO2 incubator for 72 hrs. Cytotoxicity was evaluated using a tetrazolium salt-based assay, the MTT assay. After 72 hours, the supernatant was removed from each well and 200 μl of a sterile filtered 500 μg/ml MTT solution in water added to each well. The plates were then incubated at 37° C. in a CO2 incubator for 4 hrs. The supernatant was then removed and the formazan crystals formed solubilized by adding 150 μl of DMSO to each well. The plate was then read on a plate reader at 540 nm, and percentage cell survival calculated as follows: ((mean absorbance treated wells at concentration x−mean absorbance blank wells)[…](mean absorbance untreated wells at concentration x−mean absorbance blank wells))×100. Data were plotted as concentration in nM vs. % cell survival in Microsoft Excel, and IC50 values (concentration where cell survival is reduced by a half) were determined from the graph.

[2] = test system: LIM1215 cell line; experiment: MTT cytotoxicity assay, LIM1215
Method: as §1

[3] = test system: SW48 cell line; experiment: MTT cytotoxicity assay, SW48
Method: as §1

COc1cc2c(cc1OCc1cccc(CC(=O)N3C[C@@H](C)c4c3cc(O)c3ccccc43)c1)NC(=O)[C@@H]1CCCCN1C2=O [Compound 143, (S)-3-((3-(2-((S)-5-Hydroxy-1-methyl-1,2-dihydro-3H-benzo[e]indol-3-yl)-2-oxoethyl)benzyl)oxy)-2-methoxy-7,8,9,10-tetrahydrobenzo[e]pyrido[1,2-a][1,4]diazepine-6,12(5H,6aH)-dione]
Not active: Cytotoxicity SW620 (72 hours) [1] | Cytotoxicity LIM1215 (72 hours) [2] | Cytotoxicity SW48 (72 hrs) [3]
